Entries after “also recorded” stand apart in the source; their conditions may differ.
What was measured:
Assay type in all cases: cell-based, human
[1] = test system: DUX4; assay: 24 hr 5-AzaC pulse of FSHD iPM (S2 cells), qPCR of MBD3L2 and MYH8 RNA
Method: (§1) FIG. 11E: qPCR assays of the expression of DUX4 target gene (MBD3L2) RNA and a muscle gene (MYH8) RNA of S2 cells (top panel) and iMyoblasts (bottom panel) following 24 hr treatment with increasing doses of 5-AzaC. 5-AzaC-treated S2 cultures were cultured for 6 days of S2 growth medium (GM) and 7 days in S3 differentiation medium (DM). 5-AzaC-treated iMyoblasts were cultured for 6 days in myoblast growth medium (GM) and 4 days in Opti-MEM differentiation medium. qPCR data were normalized to RPL13A and relative expression is shown normalized to […].
To investigate epigenetic mechanisms responsible for DUX4 repression during reprogramming and iPM induction, a blinded screen was conducted to identify epigenetic drugs that activate DUX4 in FSHD iPM undergoing myogenesis.
iPMs were treated for 24 hr with a pulse of epigenetic drugs, followed by culturing for 7 days in iPM growth medium and 7 days of iPMC differentiation medium. The cultured iPMs were then subjected to qPCR analysis to determine the expression of MBD3L2 RNA (a DUX4 biomarker) and MYH8 RNA (a muscle differentiation marker data now shown). […] See, FIG. 11D. […]
For quantification of housekeeping genes, DUX4 biomarker or muscle differentiation marker expression, 20 ng of cDNA was used for each reaction. For quantification of DUX4 expression, 90-150 ng of cDNA was used in each reaction.

[2] = test system: genome; assay: Genome-wide methylome analysis using Illumina chip assays after 5-AzaC treatment; settings: data not shown
[3] = test system: DUX4; assay: 5-AzaC treatment of proliferating iMyoblasts, qPCR in myotubes; settings: lower concentrations
Method: as §1
iPMs were treated for 24 hr with a pulse of epigenetic drugs, followed by culturing for 7 days in iPM growth medium and 7 days of iPMC differentiation medium. The cultured iPMs were then subjected to qPCR analysis to determine the expression of MBD3L2 RNA (a DUX4 biomarker) and MYH8 RNA (a muscle differentiation marker data now shown). […] See, FIG. 11D. At high 5-AzaC concentrations, MYH8 RNA expression decreased. […] Rickard et al., (2015). […] See, FIG. 11D.
Ribonucleic acid (RNA) was isolated either from cells in culture or from xenoengrafted TA muscles using the RNeasy® Plus Mini Kit (Qiagen) or Aurum® Total RNA Fatty and Fibrous Tissue kit (Bio-Rad) respectively per the manufacturer's specifications. […]

[4] = test system: DUX4; assay: 5-AzaC treatment of FSHD ESC iPMs; settings: data not shown
Method: iPMs were treated for 24 hr with a pulse of epigenetic drugs, followed by culturing for 7 days in iPM growth medium and 7 days of iPMC differentiation medium. The cultured iPMs were then subjected to qPCR analysis to determine the expression of MBD3L2 RNA (a DUX4 biomarker) and MYH8 RNA (a muscle differentiation marker data now shown). […] See, FIG. 11D. […] et al., (2015). […] See, FIG. 11D.

[5] = test system: DUX4 target gene; assay: Losmapimod treatment of FSHD1 iMyotubes, NanoString digital RNA assays; set-up: dose or concentration left out as unconfirmed; settings: Pre- or Post-differentiation treatment with Losmapimod, N2 medium
Description: FIG. 21A: Schematic of Losmapimod treatment protocols for Pre-drug administration at the initiation of iMyotube differentiation and at Post iMyotube differentiation after 4 days in N2 differentiation medium. FIG. 21B: NanoString digital RNA assays of DUX4 target gene and muscle gene expression in carrier treated (UT) FSHID1 iMyoblasts and in iMyotube cultures Pre- or Post-differentiation treatment with […] Losmapimod. Normalized counts of expression are presented on linear scale with each dot corresponding to an individual culture. Data are presented as mean±SEM for each condition. For NanoString RNA quantification, 50 ng or 150 ng of total RNA was used for cell culture and xenografted TA muscle, respectively. A muscle NanoString panel was constructed with human specific probes for muscle protein genes, muscle master regulatory genes, developmental transcription factors, signaling genes and multiple housekeeping genes and used for all analysis on an nCounter SprintR profiler (NanoString Technologies, Seattle, WA). Raw mRNA counts were normalized to a series of housekeeping genes (e.g., RPL13A, GAPDH, GUUSB, and VCP) using nSolverR software (NanoString Technologies, Seattle, WA).

| Compound | DUX4 expression, as assayed by MBD3L2 RNA biomarker expression ([1]; 24 hr pulse, then 7 days iPM growth medium and 7 days iPMC differentiation medium, qPCR) | MYH8 RNA expression ([1]; high 5-AzaC concentrations) | demethylation, genome-wide methylome analysis [2] | DUX4 biomarker expression in myotubes [3] | DUX4 expression [4] | DUX4 target gene expression [5] |
| --- | --- | --- | --- | --- | --- | --- |
| Nc1ncn([C@@H]2O[C@H](CO)[C@@H](O)[C@H]2O)c(=O)n1 [5-AzaC, 5-azacytidine] | effectively increased DUX4 expression in a concentration dependent manner; also recorded: can be reversed | decreased | selective demethylation of many sequences throughout the genome | only a small increase | high levels of DUX4 expression |  |
| Cc1c(F)cc(C(=O)NC2CC2)cc1-c1ccc(C(=O)NCC(C)(C)C)cn1 [Losmapimod] |  |  |  |  |  | decreases; also recorded: inhibited |
